Source: the supplement of paper PMC13380429

What was measured:
A549-ACE2 [1] = experiment: phospholipidosis EC50; higher = less potent phospholipidosis inducer
[2] = tested on: A549-ACE2 infected with SARS-CoV-2; experiment: SARS-CoV-2 infection rate relative to DMSO; higher = more infection; conditions: 24 h
[3] = tested on: A549-ACE2 infected with SARS-CoV-2; experiment: morphology score (similarity to uninfected cells); higher = more like uninfected cells; conditions: 24 h
[4] = tested on: A549-ACE2 infected with SARS-CoV-2; experiment: cell count relative to DMSO; higher = less toxic; conditions: 24 h
HepG2 [5] = experiment: cell viability relative to DMSO; higher = less toxic; conditions: 72 h
Caco-2 [6] = experiment: as above; conditions: 72 h
Calu-3 [7] = experiment: as above; conditions: 72 h
U2OS [8] = experiment: as above; conditions: 72 h
Vero E6 [9] = experiment: as above; conditions: 72 h
A549-ACE2 [10] = experiment: drug-induced phospholipidosis relative to tamoxifen; higher = more phospholipidosis
HepG2 [11] = experiment: relative viability EC50 (midpoint between 100% and the lowest measured viability); higher = less toxic; conditions: 72 h
Caco-2 [12] = experiment: as above; conditions: 72 h
Calu-3 [13] = experiment: as above; conditions: 72 h
U2OS [14] = experiment: as above; conditions: 72 h
HepG2 [15] = experiment: drug sensitivity score (DSS) for viability; higher = more toxic; extreme values may be limits of the assay; conditions: 72 h
Caco-2 [16] = experiment: as above; conditions: 72 h
Calu-3 [17] = experiment: as above; conditions: 72 h
U2OS [18] = experiment: as above; conditions: 72 h
Vero E6 [19] = experiment: as above; conditions: 72 h
Vero E6 [20] = experiment: relative viability EC50 (midpoint between 100% and the lowest measured viability); higher = less toxic; conditions: 72 h

Cc1cc(Nc2ccc(NC(=O)c3ccc(Nc4ccnc5ccccc45)cc3)cc2)nc(N)n1 [SGI-1027]
Conditions | SARS-CoV-2 infection rate [%] | cell count [%] | cell viability [%] | morphology score | phospholipidosis EC50 [µM]
A549-ACE2 [1], 24 h | – | – | – | – | 2.95
A549-ACE2 [1], 48 h | – | – | – | – | 3.26
A549-ACE2 [1], 72 h | – | – | – | – | 3.61
Caco-2 [6], 1 nM | – | – | 103 | – | –
Caco-2 [6], 10 nM | – | – | 114 | – | –
Caco-2 [6], 100 nM | – | – | 103 | – | –
Caco-2 [6], 1000 nM | – | – | 99.4 | – | –
Caco-2 [6], 10000 nM | – | – | 13.1 | – | –
Calu-3 [7], 1 nM | – | – | 106 | – | –
Calu-3 [7], 10 nM | – | – | 109 | – | –
Calu-3 [7], 100 nM | – | – | 112 | – | –
Calu-3 [7], 1000 nM | – | – | 106 | – | –
Calu-3 [7], 10000 nM | – | – | 2.8 | – | –
HepG2 [5], 1 nM | – | – | 110 | – | –
HepG2 [5], 10 nM | – | – | 108 | – | –
HepG2 [5], 100 nM | – | – | 104 | – | –
HepG2 [5], 1000 nM | – | – | 39.5 | – | –
HepG2 [5], 10000 nM | – | – | -0.3 | – | –
U2OS [8], 1 nM | – | – | 98.1 | – | –
U2OS [8], 10 nM | – | – | 104 | – | –
U2OS [8], 100 nM | – | – | 103 | – | –
U2OS [8], 1000 nM | – | – | 104 | – | –
U2OS [8], 10000 nM | – | – | 1 | – | –
Vero E6 [9], 1 nM | – | – | 96.9 | – | –
Vero E6 [9], 10 nM | – | – | 99 | – | –
Vero E6 [9], 100 nM | – | – | 94.7 | – | –
Vero E6 [9], 1000 nM | – | – | 96.6 | – | –
Vero E6 [9], 10000 nM | – | – | 63.9 | – | –
[2], 0.1 µM | 91 | – | – | – | –
[2], 0.3 µM | 101 | – | – | – | –
[2], 1 µM | 59 | – | – | – | –
[2], 3 µM | 24 | – | – | – | –
[3], 0.1 µM | – | – | – | 0.25 | –
[3], 0.3 µM | – | – | – | -0.15 | –
[3], 1 µM | – | – | – | 0.65 | –
[3], 3 µM | – | – | – | 0.16 | –
[4], 0.1 µM | – | 106 | – | – | –
[4], 0.3 µM | – | 95 | – | – | –
[4], 1 µM | – | 106 | – | – | –
[4], 3 µM | – | 34 | – | – | –

drug-induced phospholipidosis [%], A549-ACE2 [10]
Conditions | 0.3 µM | 0.833333 µM | 3.33333 µM | 6.66667 µM
24 h | 6.15 | 4.67 | 40.2 | 55.8
48 h | 5.31 | 4.66 | 44.4 | 77.3
72 h | 4.09 | 2.03 | 32.5 | 76.8

Conditions | drug sensitivity score | relative viability EC50 [µM]
Caco-2 [12] | – | 3.12
Caco-2 [16] | 4.9 | –
Calu-3 [13] | – | 3.48
Calu-3 [17] | 5 | –
HepG2 [11] | – | 0.844
HepG2 [15] | 12.6 | –
U2OS [14] | – | 3.39
U2OS [18] | 5.2 | –
Vero E6 [19] | 2.3 | –

CCN(CC)CCCCN1c2ccccc2Oc2ccc(Cl)cc21 [10-DEBC]
Conditions | SARS-CoV-2 infection rate [%] | cell count [%] | cell viability [%] | morphology score | phospholipidosis EC50 [µM]
A549-ACE2 [1], 24 h | – | – | – | – | 3.06
A549-ACE2 [1], 48 h | – | – | – | – | 3.97
A549-ACE2 [1], 72 h | – | – | – | – | 4.34
Caco-2 [6], 1 nM | – | – | 93.2 | – | –
Caco-2 [6], 10 nM | – | – | 99.6 | – | –
Caco-2 [6], 100 nM | – | – | 100 | – | –
Caco-2 [6], 1000 nM | – | – | 102 | – | –
Caco-2 [6], 10000 nM | – | – | 66.1 | – | –
Calu-3 [7], 1 nM | – | – | 112 | – | –
Calu-3 [7], 10 nM | – | – | 105 | – | –
Calu-3 [7], 100 nM | – | – | 110 | – | –
Calu-3 [7], 1000 nM | – | – | 103 | – | –
Calu-3 [7], 10000 nM | – | – | 39 | – | –
HepG2 [5], 1 nM | – | – | 90.3 | – | –
HepG2 [5], 10 nM | – | – | 103 | – | –
HepG2 [5], 100 nM | – | – | 87.4 | – | –
HepG2 [5], 1000 nM | – | – | 88.7 | – | –
HepG2 [5], 10000 nM | – | – | 45.3 | – | –
U2OS [8], 1 nM | – | – | 100 | – | –
U2OS [8], 10 nM | – | – | 96.4 | – | –
U2OS [8], 100 nM | – | – | 94.7 | – | –
U2OS [8], 1000 nM | – | – | 93.3 | – | –
U2OS [8], 10000 nM | – | – | 80.1 | – | –
Vero E6 [9], 1 nM | – | – | 99.5 | – | –
Vero E6 [9], 10 nM | – | – | 97.4 | – | –
Vero E6 [9], 100 nM | – | – | 93.7 | – | –
Vero E6 [9], 1000 nM | – | – | 92.6 | – | –
Vero E6 [9], 10000 nM | – | – | 63 | – | –
[2], 0.1 µM | 109 | – | – | – | –
[2], 0.3 µM | 87 | – | – | – | –
[2], 1 µM | 76 | – | – | – | –
[2], 3 µM | 55 | – | – | – | –
[3], 0.1 µM | – | – | – | -0.05 | –
[3], 0.3 µM | – | – | – | 0.39 | –
[3], 1 µM | – | – | – | 0.55 | –
[3], 3 µM | – | – | – | 0.9 | –
[4], 0.1 µM | – | 107 | – | – | –
[4], 0.3 µM | – | 103 | – | – | –
[4], 1 µM | – | 107 | – | – | –
[4], 3 µM | – | 127 | – | – | –

drug-induced phospholipidosis [%], A549-ACE2 [10]
Conditions | 0.3 µM | 0.833333 µM | 3.33333 µM | 6.66667 µM | 10 µM
24 h | 0.51 | 1.58 | 47.7 | 76.9 | 81.2
48 h | 1.97 | 2.56 | 41 | 88.5 | 101
72 h | 2.46 | 1.09 | 30.1 | 85.5 | 98.7

Conditions | drug sensitivity score | relative viability EC50 [µM]
Caco-2 [16] | 1.4 | –
Calu-3 [13] | – | 3.43
Calu-3 [17] | 3.1 | –
HepG2 [11] | – | 1.76
HepG2 [15] | 4.7 | –
U2OS [14] | – | > 10
U2OS [18] | 0.8 | –
Vero E6 [19] | 3 | –

CN1[C@@H]2CC[C@H]1C[C@@H](OC(c1ccccc1)c1ccccc1)C2 [benztropine-mesylate]
Conditions | SARS-CoV-2 infection rate [%] | cell count [%] | cell viability [%] | morphology score | phospholipidosis EC50 [µM]
A549-ACE2 [1], 24 h | – | – | – | – | 8.44
A549-ACE2 [1], 48 h | – | – | – | – | 9.6
A549-ACE2 [1], 72 h | – | – | – | – | 9.86
Caco-2 [6], 1 nM | – | – | 96.2 | – | –
Caco-2 [6], 10 nM | – | – | 98 | – | –
Caco-2 [6], 100 nM | – | – | 94.5 | – | –
Caco-2 [6], 1000 nM | – | – | 103 | – | –
Caco-2 [6], 10000 nM | – | – | 93 | – | –
Calu-3 [7], 1 nM | – | – | 101 | – | –
Calu-3 [7], 10 nM | – | – | 101 | – | –
Calu-3 [7], 100 nM | – | – | 109 | – | –
Calu-3 [7], 1000 nM | – | – | 116 | – | –
Calu-3 [7], 10000 nM | – | – | 94.2 | – | –
HepG2 [5], 1 nM | – | – | 103 | – | –
HepG2 [5], 10 nM | – | – | 102 | – | –
HepG2 [5], 100 nM | – | – | 103 | – | –
HepG2 [5], 1000 nM | – | – | 89 | – | –
HepG2 [5], 10000 nM | – | – | 92.1 | – | –
U2OS [8], 1 nM | – | – | 95.2 | – | –
U2OS [8], 10 nM | – | – | 98 | – | –
U2OS [8], 100 nM | – | – | 95.5 | – | –
U2OS [8], 1000 nM | – | – | 98.3 | – | –
U2OS [8], 10000 nM | – | – | 92.4 | – | –
Vero E6 [9], 1 nM | – | – | 99.4 | – | –
Vero E6 [9], 10 nM | – | – | 104 | – | –
Vero E6 [9], 100 nM | – | – | 103 | – | –
Vero E6 [9], 1000 nM | – | – | 97.5 | – | –
Vero E6 [9], 10000 nM | – | – | 93.8 | – | –
[2], 0.3 µM | 106 | – | – | – | –
[2], 3 µM | 60 | – | – | – | –
[2], 10 µM | 33 | – | – | – | –
[2], 30 µM | 12 | – | – | – | –
[3], 0.3 µM | – | – | – | -0.15 | –
[3], 3 µM | – | – | – | 0.67 | –
[3], 10 µM | – | – | – | 0.82 | –
[3], 30 µM | – | – | – | 0.71 | –
[4], 0.3 µM | – | 98 | – | – | –
[4], 3 µM | – | 112 | – | – | –
[4], 10 µM | – | 123 | – | – | –
[4], 30 µM | – | 120 | – | – | –

drug-induced phospholipidosis [%], A549-ACE2 [10]
Conditions | 0.3 µM | 0.833333 µM | 3.33333 µM | 6.66667 µM | 10 µM | 30 µM
24 h | 2.39 | -1.85 | 12.3 | 31.1 | 63.2 | 94.2
48 h | 3.49 | 2.96 | 8.82 | 25.8 | 58.8 | 103
72 h | 4.91 | 3.92 | 10.9 | 27.1 | 59.7 | 107

Conditions | drug sensitivity score | relative viability EC50 [µM]
Caco-2 [12] | – | > 10
Caco-2 [16] | 0 | –
Calu-3 [13] | – | > 10
Calu-3 [17] | 0 | –
HepG2 [11] | – | > 10
HepG2 [15] | 0.2 | –
U2OS [14] | – | > 10
U2OS [18] | 0 | –
Vero E6 [19] | 0 | –
Vero E6 [20] | – | > 10
